In patent US11654121B1 (priority 2022, dated 2023):

Assays:
[1] = test system: SARS-CoV-2 virus [B.1.351]; type: in vivo, mice; conditions: Hypericin 20 mg/kg alone, pre-treatment from two days prior to infection; day 4 post-infection
SARS-CoV-2 = test: CellTiter-Glo host cell viability assay of SARS-CoV-2-infected Vero E6 cells; type: cell-based; conditions: for host cell viability: hypericin 0 μM
Experimental: Vero E6 cells were seeded at 25,000 cells/well in 96-well plates and SARS-CoV-2 was added into the wells at a MOI of 0.01. After 1 hour, hypericin (Cayman Chemical, ≥95% purity) was added into the wells at final concentrations of 1.5625-100 μM or the vehicle only control (DMSO), followed by the addition of remdesivir (Novation Chemicals, 98% purity) at final concentrations of 0.3125-5 μM or the vehicle only control (DMSO), and incubated at 37° C.
After 72 hours of incubation, host cell viability was assessed using CellTiter-Glo® Luminescent Cell Viability Assay (Promega) according to the manufacturer's instructions. Results were normalized to the highest dose of remdesivir alone (5 μM) and are summarized below in Table 1.

Row | SMILES | mice in which all infectious titers were eliminated [1] | viability at 1.563 µM (SARS-CoV-2; Severe acute respiratory syndrome coronavirus 2, Vero C1008, hypericin 1.563 μM, remdesivir 0 μM, 72 h, normalized to remdesivir 5 μM alone) | viability at 3.125 µM (SARS-CoV-2; Severe acute respiratory syndrome coronavirus 2, Vero C1008, hypericin 3.125 μM, remdesivir 0 μM, 72 h, normalized to remdesivir 5 μM alone) | viability at 6.25 µM (SARS-CoV-2; Severe acute respiratory syndrome coronavirus 2, Vero C1008, hypericin 6.25 μM, remdesivir 0 μM, 72 h, normalized to remdesivir 5 μM alone) | viability at 12.5 µM (SARS-CoV-2; Severe acute respiratory syndrome coronavirus 2, Vero C1008, hypericin 12.5 μM, remdesivir 0 μM, 72 h, normalized to remdesivir 5 μM alone) | viability at 25 µM (SARS-CoV-2; Severe acute respiratory syndrome coronavirus 2, Vero C1008, hypericin 25 μM, remdesivir 0 μM, 72 h, normalized to remdesivir 5 μM alone) | viability at 50 µM (SARS-CoV-2; Severe acute respiratory syndrome coronavirus 2, Vero C1008, hypericin 50 μM, remdesivir 0 μM, 72 h, normalized to remdesivir 5 μM alone) | viability at 100 µM (SARS-CoV-2; Severe acute respiratory syndrome coronavirus 2, Vero C1008, hypericin 100 μM, remdesivir 0 μM, 72 h, normalized to remdesivir 5 μM alone) | viability at 50 µM (SARS-CoV-2; Severe acute respiratory syndrome coronavirus 2, Vero C1008, hypericin alone (12.5-100 μM), up to, at 50 μM) | effect on host cell viability in words (SARS-CoV-2; hypericin (25-50 μM) alone) | host cell viability (SARS-CoV-2; remdesivir 0.3125 μM, 72 h, normalized to remdesivir 5 μM alone) | host cell viability (SARS-CoV-2; remdesivir 0.625 μM, 72 h, normalized to remdesivir 5 μM alone) | host cell viability (SARS-CoV-2; remdesivir 1.25 μM, 72 h, normalized to remdesivir 5 μM alone) | host cell viability (SARS-CoV-2; remdesivir 2.5 μM, 72 h, normalized to remdesivir 5 μM alone)
1 | Cc1cc(O)c2c(=O)c3c(O)cc(O)c4c5c(O)cc(O)c6c(=O)c7c(O)cc(C)c8c1c2c(c34)c(c78)c65 [Hypericin] | 5 out of 7 | 14.6% | 12.9% | 12.8% | 20.4% | 62% | 62.6% | 38% | ≤ 62% | modest improvements in host cell viability | – | – | – | –
2 | CCC(CC)COC(=O)[C@H](C)N[P@](=O)(OC[C@H]1O[C@@](C#N)(c2ccc3c(N)ncnn23)[C@H](O)[C@@H]1O)Oc1ccccc1 [Remdesivir, remdesivir, reference compound] | – | – | – | – | – | – | – | – | – | – | 19.8% | 21.9% | 25.2% | 38.1%
